Experiments:
[1] = Example 15: release of nicotine from NPR (16%) with 1 equivalent of AlCl3 or MgO in water, 28 mg/L nicotine, 25 degrees Celsius, 150 rpm, HPLC; assay type: physicochemical; conditions: 1 equivalent of MgO; release from NPR (16%)
Method: The temperature of the water was 25 degrees Celsius throughout the experiment and stirring of 150 rpm was applied throughout the experiment. pH was measured at experiment start and end.
(§1) A relative low nicotine concentration is used in order to reduce the impact of equilibrium on both the release rate and effective release of nicotine from the ion-exchange resin.
Samples were taken out at varying timepoints and analyzed for nicotine content using standard HPLC. The result is presented as percentage of nicotine released.

[2] = 25 degrees Celsius, atmospheric pressure and pH 7.0; cited from earlier work
[3] = compared with CaCl2; release from NPR (16%)
Method: The temperature of the water was 25 degrees Celsius throughout the experiment and stirring of 100 rpm was applied throughout the experiment. pH was measured at experiment start and end.
as §1
Samples were taken out at varying timepoints and analyzed for nicotine content using standard HPLC. The results are presented as percentage of nicotine released.

SMILES	Effect of the presence of MgO on release of nicotine [1]	water-solubility [2]	Effect of NaCl on the release of nicotine [3]
[Mg+2].[O-2] [MgO]	does not increase the release of nicotine	below 5 grams per 100 mL of water	
[Cl-].[Na+] [NaCl]			much lower effect on the release of nicotine
